Laboratory results: patent US6265376A, “Insecticidal plectoxins from plectreurys tristis” (Novartis AG, priority 1995, dated 2001)

Tests used:
M. sexta = experiment: Injection of plectoxins into insect larvae (toxicity); type: in vivo, Manduca sexta
Method: (§1) Polypeptides isolated from or those showing substantial homology to those isolated from the venom of Plectreurys tristis are useful as insecticidal agents. In particular, they are useful insecticidal agents against insects of the order Lepidoptera, for example, Heliothis virescens, Autographa californica, and the insects of the genus Spodoptera. Both the purified plectoxin and viruses transformed to produce the plectoxin are assayed for bioactivity on larvae including: tobacco hornworms (Manduca sexta), tobacco budworms (Heliothis virescens) and beet armyworm (Spodoptera exizua).
(§2) Venom from P. tristis is obtained from Spider Pharm, Black Canyon City, Az. Crude venom (approximately 200 μl per injection) is fractionated by reversed-phase liquid chromatography (LC) using the following conditions: a Perkin Elmer Model 410 Bio solvent delivery system; 5 ml injection loop; Hewlett Packard Model 1040M diode array detector at 220 and 280 nm; Aquapore ODS column, 22×1 cm (Brownlee Labs, Santa Clara, Calif.); 4.5 ml/min; acetonitrile (MeCN) in a constant 0.1% trifluoroacetic acid, 0% MeCN for 5 min, then linear gradient of 0 to 60% MeCN over 55 min. Similar fractions from several runs are combined and portions are removed for bioassays. […]

H. virescens = experiment: as above; type: in vivo, Heliothis virescens
Method: as §1, §2

S. exigua = experiment: as above; type: in vivo, Spodoptera exigua
Method: as §1
Various plectoxins isolated from venom are injected into three different insect larvae. […] ED50 is the dose which is effective to paralyze 50% of the larvae at one hour. Values with an asterisk denote duplicate analysis with samples from different milking lots.

insects = experiment: Insect toxicity (paralysis and/or death of test larvae), general statements; type: in vivo; settings: injection of a number of different insects
Method: as §1

[1] = dose paralyzing 50% of larvae at one hour
[2] = lethal dose for 50% of treated larvae at 24 hours

Substance: Plt-VI (AVKCIGWQETCNGNLPCCNECVMCECNIMGQNCRCNHPKATNECES)
- ED50 (M. sexta; [1]): 0.10 µg/g
- LD50 (M. sexta; [2]): 0.15 µg/g
- ED50 (H. virescens; [1]): 0.21 µg/g
- LD50 (H. virescens; [2]): 1.2 µg/g
- ED50 (S. exigua; [1]): 0.32 µg/g
- LD50 (S. exigua; [2]): > 10 µg/g
- paralytic activity upon injection (insects): very high level of paralytic activity
